In patent US5043273A, “Phosphorylated glycosidase inhibitor prodrugs” (Monsanto Company, priority 1989, dated 1991):
Like-named read-outs stand apart in the source and are kept apart here.

What was measured:
[1] = target: T1, Porcine Intestinal Sucrase (Sus scrofa, UniProt P56729); assay: Inhibition constants against porcine intestinal sucrase; format: biochemical
T1 construct: both chains cut from one SI precursor
Experimental: (§1) Porcine Intestinal Sucrase and Maltase. A sucrase-isomaltase complex was extracted from pig small intestine by treatment with urea and then solubilized by digestion with papain. The enzyme-complex was recovered by ethanol precipitation and then further purified by cellulose DE-52 anion exchange chromatography. The activity of sucrase was assayed by incubating an appropriate amount of enzyme at 37° C. in a final volume of 150 μ1 containing 25 mM sodium citrate buffer, pH 6.0, and 30 mM sucrose as substrate. After 30 min. the enzyme was inactivated by heating at 100° C. for 3 min, the reaction mixture centrifuged at 15000×g for 15 min and a 50 µl aliquot of the supernatant removed and the enzymereleased glucose determined by the glucose oxidase-peroxidase method described by Trinder, Ann. Clin. Biochem. 6, 24 (1969). Under the standard assay conditions, the release of glucose was linear up to 10% hydrolysis of the substrate. […] Maltase activity associated with the sucrase-isomaltase complex [Kolinska and Semenze, Biochim. Biophys. Acta 146, 181 (1967)] was assayed in a manner similar to sucrase except that the substrate was 30 mM maltose. Under the standard assay conditions release of glucose was linear up to 8% hydrolysis of the substrate. The specific activity of maltase was 15.2 units/mg protein.
Inhibition constants for the various DNJ derivatives and castanospermine were determined from Lineweaver-Burk plots of the enzyme-catalyzed reaction in the presence and absence of different fixed concentrations of each inhibitor. Incubations using sucrase were for 30 min at a concentration of 90 milliunits/ml and for maltase were for 12 min at a concentration of 80 milliunits/ml.

[2] = target: T2, Porcine Microsomal Alpha-Glucosidase I (Sus scrofa, UniProt K7N7E7); assay: Inhibition constants against porcine microsomal alpha-glucosidase I; format: biochemical
T2 construct: Alpha-glucosidase I was isolated from porcine liver microsomes; from tissue; host or cells: porcine liver microsomes
T2 sequence (K7N7E7 1-839): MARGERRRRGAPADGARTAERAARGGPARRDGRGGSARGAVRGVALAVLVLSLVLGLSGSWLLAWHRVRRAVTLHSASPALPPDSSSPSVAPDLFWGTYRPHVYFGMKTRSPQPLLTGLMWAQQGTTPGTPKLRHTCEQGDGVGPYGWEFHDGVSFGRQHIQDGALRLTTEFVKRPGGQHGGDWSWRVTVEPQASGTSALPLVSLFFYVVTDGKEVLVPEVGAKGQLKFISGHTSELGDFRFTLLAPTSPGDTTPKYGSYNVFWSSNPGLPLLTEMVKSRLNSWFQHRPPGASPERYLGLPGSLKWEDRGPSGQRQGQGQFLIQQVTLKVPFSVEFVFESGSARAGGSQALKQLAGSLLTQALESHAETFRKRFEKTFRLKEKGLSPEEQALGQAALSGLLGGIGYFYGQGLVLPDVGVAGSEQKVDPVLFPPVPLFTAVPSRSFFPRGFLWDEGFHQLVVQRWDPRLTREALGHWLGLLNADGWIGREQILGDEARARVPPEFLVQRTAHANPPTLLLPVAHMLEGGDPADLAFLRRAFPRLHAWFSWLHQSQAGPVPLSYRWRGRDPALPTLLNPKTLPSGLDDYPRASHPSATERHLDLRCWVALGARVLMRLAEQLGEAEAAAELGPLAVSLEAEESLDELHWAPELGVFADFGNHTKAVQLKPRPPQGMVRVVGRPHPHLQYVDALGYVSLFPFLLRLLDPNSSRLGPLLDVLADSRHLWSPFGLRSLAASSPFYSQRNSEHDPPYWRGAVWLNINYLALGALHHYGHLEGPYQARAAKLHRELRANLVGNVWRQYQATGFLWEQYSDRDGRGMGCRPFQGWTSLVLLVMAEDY
Experimental: Porcine Microsomal Alpha-Glucosidase I. Alpha-glucosidase I was isolated from porcine liver microsomes by an affinity chromatographic method similar to that described by Hettkamp et.al., Eur J. Biochem. 142, 85-90 (1981).
Inhibition constants for the various DNJ derivatives and castanospermine were determined assuming competitive inhibition and were derived from the initial rates for the hydrolysis of [^14 C-Glc]Glc3 Man9 GlcNAc2 (at a concentration of 0.044 μM), at pH7.0 and 37° C. in the presence and absence of several fixed concentrations of each inhibitor.

[3] = target: T3, Porcine Intestinal Maltase (Sus scrofa, UniProt P56729); assay: Inhibition constants against porcine intestinal maltase; format: biochemical
T3 construct: both chains cut from one SI precursor
T3 sequence (P56729 with tags, fused parts or gaps): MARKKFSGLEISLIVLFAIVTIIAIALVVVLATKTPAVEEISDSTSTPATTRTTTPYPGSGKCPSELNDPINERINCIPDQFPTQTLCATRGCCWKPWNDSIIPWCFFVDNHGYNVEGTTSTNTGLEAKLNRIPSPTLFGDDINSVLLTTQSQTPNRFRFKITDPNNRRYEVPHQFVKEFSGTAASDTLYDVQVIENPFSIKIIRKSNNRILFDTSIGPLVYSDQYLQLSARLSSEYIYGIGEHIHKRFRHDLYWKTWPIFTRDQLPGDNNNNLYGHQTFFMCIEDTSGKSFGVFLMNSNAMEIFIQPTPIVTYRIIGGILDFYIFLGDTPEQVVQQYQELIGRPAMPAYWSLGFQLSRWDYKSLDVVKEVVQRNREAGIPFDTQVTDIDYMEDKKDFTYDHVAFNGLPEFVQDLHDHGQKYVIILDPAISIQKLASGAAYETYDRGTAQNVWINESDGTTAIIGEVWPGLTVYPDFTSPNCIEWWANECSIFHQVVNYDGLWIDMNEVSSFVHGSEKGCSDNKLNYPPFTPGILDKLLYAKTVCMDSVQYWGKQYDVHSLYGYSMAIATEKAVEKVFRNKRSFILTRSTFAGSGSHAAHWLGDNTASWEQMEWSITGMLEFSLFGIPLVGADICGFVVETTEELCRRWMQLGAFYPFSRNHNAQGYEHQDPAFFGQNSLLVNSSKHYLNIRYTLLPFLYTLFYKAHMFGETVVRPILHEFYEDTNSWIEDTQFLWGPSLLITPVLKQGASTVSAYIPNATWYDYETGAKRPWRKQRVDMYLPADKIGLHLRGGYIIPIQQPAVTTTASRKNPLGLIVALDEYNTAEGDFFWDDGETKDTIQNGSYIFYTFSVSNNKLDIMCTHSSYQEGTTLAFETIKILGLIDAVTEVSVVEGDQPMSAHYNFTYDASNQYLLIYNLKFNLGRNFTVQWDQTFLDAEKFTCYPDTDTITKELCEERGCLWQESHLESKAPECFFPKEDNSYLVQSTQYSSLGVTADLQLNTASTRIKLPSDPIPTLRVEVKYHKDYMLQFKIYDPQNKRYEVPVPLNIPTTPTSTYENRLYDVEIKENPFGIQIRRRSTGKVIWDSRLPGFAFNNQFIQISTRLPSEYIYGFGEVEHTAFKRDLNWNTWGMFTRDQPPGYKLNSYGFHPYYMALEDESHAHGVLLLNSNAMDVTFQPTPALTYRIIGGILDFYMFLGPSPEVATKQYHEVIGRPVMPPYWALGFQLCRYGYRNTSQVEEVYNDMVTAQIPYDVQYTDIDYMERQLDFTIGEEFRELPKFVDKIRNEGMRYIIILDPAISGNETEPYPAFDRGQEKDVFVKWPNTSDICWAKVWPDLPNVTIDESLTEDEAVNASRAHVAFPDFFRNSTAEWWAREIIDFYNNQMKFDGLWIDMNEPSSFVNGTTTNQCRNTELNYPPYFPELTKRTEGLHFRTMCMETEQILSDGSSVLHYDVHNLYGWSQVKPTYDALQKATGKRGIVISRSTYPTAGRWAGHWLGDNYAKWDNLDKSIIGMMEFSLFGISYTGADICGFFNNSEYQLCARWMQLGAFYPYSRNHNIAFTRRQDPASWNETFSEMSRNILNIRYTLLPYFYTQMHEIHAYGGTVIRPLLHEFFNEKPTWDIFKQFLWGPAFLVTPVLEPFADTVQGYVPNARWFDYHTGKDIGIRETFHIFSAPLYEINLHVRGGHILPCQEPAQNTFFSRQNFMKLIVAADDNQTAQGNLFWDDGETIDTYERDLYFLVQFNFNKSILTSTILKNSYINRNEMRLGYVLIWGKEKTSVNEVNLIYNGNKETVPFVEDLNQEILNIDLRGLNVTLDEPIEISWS
Experimental: as §1, with “Under the standard assay conditions release of glucose was linear up to 8% hydrolysis of the substrate. The specific activity of maltase was 15.2 units/mg protein.” left out
Inhibition constants for the various DNJ derivatives and castanospermine were determined from Lineweaver-Burk plots of the enzyme-catalyzed reaction in the presence and absence of different fixed concentrations of each inhibitor. […]

[4] = tested on: human immunodeficiency virus (HIV); details: at noncytotoxic concentrations; cited from earlier work
[5] = tested on: bovine intestinal alkaline phosphatase; assay: Dephosphorylation by alkaline phosphatase (biolability of the phosphate group); format: in vitro ADME; details: 1 mM compound, 130 U/ml enzyme, 37° C., pH 9.5, 16 h, assayed by HPAEC
Experimental: N-Butyldeoxynojirimycin-6-phosphate (1 mM) was incubated with bovine intestinal alkaline phosphatase (Sigma Type VII, 130 U/ml) at 37° C. n 0.1 m Na2 Co3 /NaHCO3 buffer, pH 9.5.

[6] = pig small intestine, 30 mM sucrose, pH 6.0, 37° C., 30 min, Lineweaver-Burk plots, read-out: Ki Intestinal Sucrase
[7] = porcine liver microsomes, substrate [14C-Glc]Glc3Man9GlcNAc2 0.044 μM, pH 7.0, 37° C., competitive inhibition assumed, read-out: Ki Microsomal α-Glucosidase I

T1 sequence (P56729 with tags, fused parts or gaps): as above

Structure (SMILES) | Ki [1, 6] | Ki [2, 7] | Dephosphorylation by alkaline phosphatase ([5]; listed as N-Butyldeoxynojirimycin-6-phosphate) | Dephosphorylation by alkaline phosphatase ([5]; listed as N-butyl-deoxynojirimycin-6-phosphate) | Inhibition of α-glucosidase I (in words) [2] | Ki [1] | Ki [2] | Inhibition of sucrase (in words) [1] | Inhibition of maltase (in words) [3] | Reduction of virus titer [4]
O[C@H]1[C@H](O)[C@@H](O)CN2CC[C@H](O)[C@H]12 [Castanospermine, castanospermine] | 0.064 µM | 0.04 µM |  |  |  |  |  |  |  | 
OC[C@H]1NC[C@H](O)[C@@H](O)[C@@H]1O [DNJ, deoxynojirimycin] |  |  |  |  |  | 0.05 µM | 0.83 µM |  |  | 
CCCCN1C[C@H](O)[C@@H](O)[C@H](O)[C@H]1CO [N-BuDNJ, N-butyldeoxynojirimycin] |  |  |  |  |  | 0.18 µM | 0.22 µM | potent inhibitor | potent inhibitor | greater than five logarithms

Further lines, with some results ahead:

Ki [1, 6] | Ki [2, 7] | Dephosphorylation by alkaline phosphatase ([5]; listed as N-Butyldeoxynojirimycin-6-phosphate) | Dephosphorylation by alkaline phosphatase ([5]; listed as N-butyl-deoxynojirimycin-6-phosphate) | Inhibition of α-glucosidase I (in words) [2] | Structure (SMILES) | Ki [1] | Ki [2] | Inhibition of sucrase (in words) [1] | Inhibition of maltase (in words) [3] | Reduction of virus titer [4]
520 µM | 6600 µM |  |  |  | O=P(O)(O)OC[C@H]1NC[C@H](O)[C@@H](O)[C@@H]1O [DNJ-6-P, deoxynojirimycin-6-phosphate] |  |  |  |  | 
1500 µM | 4000 µM | completely dephosphorylated | completely dephosphorylted | very weak inhibitor | CCCCN1C[C@H](O)[C@@H](O)[C@H](O)[C@H]1COP(=O)(O)O [N-BuDNJ-6-P, N-butyldeoxynojirimycin-6-phosphate] |  |  | very weak inhibitor | very weak inhibitor | 
